The record followed here is US20240209004A1, “BORIC ACID DERIVATIVE ACTING AS Beta-LACTAMASE INHIBITOR” (TUOJIE BIOTECH (SHANGHAI) CO., LTD., priority 2021, published 2024).

Structures are written as SMILES. In brackets after ≈: the same amount, converted by molar mass. Counter-ions that a name gives are not always drawn. Like-named read-outs stand apart in the source and are kept apart here.

For data set [1], the system named is cefepime-resistant Acinetobacter baumannii. Put plainly: MIC in combination with cefepime for drug-resistant bacteria (Test Example 2). The data set is classed as cell-based. As to conditions: Acinetobacter baumannii, read-out: CPM MIC. The method, then: (§1) The biosafety cabinet was sterilized with ultraviolet light for 30 min. Glycerol tubes were taken out of a −80° C. freezer, and streaks were gently formed in the glycerol tubes using inoculating loops. Bacteria were inoculated onto MHIIA solid plates. The plates were incubated overnight in a 37° C. incubator.
(§2) 30 μL of compound stock solution was added to column 1 of a 96-well v-bottom plate, and DMSO was added to columns 2-10. Subsequently, 15 μL was transferred from column 1 to column 2 using a pipette and well mixed gently, and then 15 μL of solution was transferred from column 2 to column 3; the serial dilution process proceeded to column 10 (200×β-lactamase inhibitor working solutions were prepared). The antibiotic was diluted with a corresponding solvent to form a 1.6 mg/mL solution.

For data set [2], the system named is cefepime-resistant Escherichia coli. The data set is described as above. To be noted: Escherichia coli, read-out: CPM MIC. The data set is classed as cell-based. The method, then:
as §1, §2

Data set [3] has as its system cefepime-resistant Klebsiella pneumoniae. The data set is described as above. The data set is classed as cell-based. To be noted: Klebsiella pneumoniae, read-out: CPM MIC. The method, then:
as §1, §2

The subject of data set [4] is cefepime-resistant Pseudomonas aeruginosa. The data set is described as above. The data set is classed as cell-based. The method, then: as §1, §2
For data set [5], the system named is Escherichia coli ATCC 25922. The experiment in a line: CPM MIC for control strain (Test Example 2). The data set is classed as cell-based. To be noted: ATCC25922; control strain Escherichia coli ATCC 25922 (printed range 0.016~0.12 μg/mL). The method, then: as §1, §2
In data set [6] the test system is Pseudomonas aeruginosa ATCC 27853. Put plainly: CPM MIC for control strain (Test Example 2). It is filed as cell-based. To be noted: ATCC27853; control strain Pseudomonas aeruginosa ATCC 27853 (printed range 0.5~4 μg/mL). The method, then:
as §1, §2

Data set [7] concerns cefepime-resistant Klebsiella pneumoniae expressing different types of β-lactamases. Put plainly: microbe, parasite or virus in culture. It is filed as cell-based. As to conditions: Klebsiella pneumoniae. The method, then:
as §1
30 μL of compound stock solution was added to column 1 of a 96-well v-bottom plate, and DMSO was added to columns 2-10. Subsequently, 15 μL was transferred from column 1 to column 2 using a pipette and well mixed gently, and then 15 μL of solution was transferred from column 2 to column 3: the serial dilution process proceeded to column 10 (200×β-lactamase inhibitor working solutions were prepared). The antibiotic was diluted with a corresponding solvent to form a 1.6 mg/mL solution.

Data set [8] concerns Escherichia coli ARLG-2829 (Urine). The experiment in a line: MIC of β-lactamase inhibitors in the presence of antibiotic (Test Example 1). It is filed as cell-based. To be noted: in the presence of Cefepime (8 ug/mL). The method, then:
(§3) • 1) The antibiotics cefepime and biapenem (purchased from MCE Inc.).
as §1
(§4) 30 μL of compound stock solution was added to column 1 of a 96-well v-bottom plate, and DMSO was added to columns 2-10. Subsequently, 15 μL was transferred from column 1 to column 2 using a pipette and well mixed gently, and then 15 μL of solution was transferred from column 2 to column 3: the serial dilution process proceeded to column 10 (200×β-lactamase inhibitor working solutions were prepared). The two antibiotics were diluted with corresponding solvents to form 1.6 mg/mL solutions.
(§5) 1 μL of 200×B-lactamase inhibitor solution and 1 μL of 1.6 mg/mL antibiotic were added to a new 96-well round-bottom plate. The plate that had been incubated overnight was taken out of the incubator, and several monoclones were picked into normal saline using an inoculating loop. The bacterial solution was adjusted to a concentration of about 1.0×10^8CFU/mL and diluted 200-fold with medium, and 198 μL of the resulting bacterial solution was added to the test plate. The test plate was incubated in a 37° C.incubator for 18-24 h. The 96-well plate that had been incubated for 20 h was taken out of the incubator. The concentration that prevented visible bacterial growth was defined as the minimum inhibitory concentration.

Data set [9] deals with Klebsiella pneumoniae ATCC BAA-1705. The data set is described as above. The data set is classed as cell-based. On the procedure:
as §3, §1, §4, §5

For data set [10], the system named is Klebsiella pneumoniae ATCC BAA-2472. The data set is described as above. It is filed as cell-based. The method, then:
as §3, §1, §4, §5

Data set [11] is described as follows: Single intravenous administration exposure, pharmacokinetics (Test Example 4). It is filed as in vivo, ICR mice. As to conditions: ICR, mouse, in vivo, iv. On the procedure: The solutions were prepared on the day of administration and stored at 4° C.
Single intravenous injections were administered to ICR mice, which were grouped as follows. Blood was collected from the saphenous vein or the fundus venous plexus at 0.083 h, 0.25 h, 0.5 h, 1 h, 2 h, 4 h, 6 h and 12 h after administration (about 0.1 mL/time point). A biological analysis method was developed to determine plasma concentrations at different time points, and related pharmacokinetic parameters were calculated.

[12] abbreviates: in the presence of Biapenem (8 ug/mL).
Where [13] appears, read: in the presence of Cefepime (8 ug/mL).

As to `CO/N=C(\C(=O)N[C@@H]1C(=O)N2C(C(=O)[O-])=C(C[N+]3(C)CCCC3)CS[C@H]12)c1csc(N)n1` [CPM, cefepime], the MIC in data set [1] (strain FDA-CDC AR-BANK#0033), in [1] (strain FDA-CDC AR-BANK#0035), in [1] (strain FDA-CDC AR-BANK#0078), in data set [2] (strain FDA-CDC AR-BANK#0055), in data set [2] (strain FDA-CDC AR-BANK#0114) and in data set [2] (strain FDA-CDC AR-BANK#0370) was more than 8 µg/mL throughout. The MIC in data set [2] (strain FDA-CDC AR-BANK#0371), in data set [3] (strain FDA-CDC AR-BANK#0003), in data set [3] (strain FDA-CDC AR-BANK#0076), in data set [3] (strain FDA-CDC AR-BANK#0080), in data set [3] (strain FDA-CDC AR-BANK#0126) and in [3] (strain FDA-CDC AR-BANK#0158) was more than 8 µg/mL each time. Moreover, the MIC is more than 8 µg/mL in data set [4] (strain FDA-CDC AR-BANK#0246, read-out: CPM MIC); more than 8 µg/mL in data set [4] (strain FDA-CDC AR-BANK#0439, read-out: CPM MIC); more than 8 µg/mL in data set [4] (strain FDA-CDC AR-BANK#0441, read-out: CPM MIC); more than 8 µg/mL in [4] (strain FDA-CDC AR-BANK#0444, read-out: CPM MIC); 0.0156 µg/mL (≈ 0.0325 µM) in data set [5]; 1 µg/mL (≈ 2.08 µM) in data set [6]. In addition, the MIC in data set [7] (ATCCBAA1705, read-out: MIC, CPM, strain ATCC BAA-1705, KPC-2, TEM, SHV, Class A) was more than 128 µg/mL; in data set [7] (ATCCBAA1705, read-out: MIC, single substance (1-1-Na, QPX7728, CPM), strain ATCC BAA-1705, KPC-2, TEM, SHV, Class A), 64 µg/mL (≈ 133 µM); in data set [7] (ATCCBAA1898, read-out: MIC, CPM, strain ATCC BAA-1898, KPC-2, Class A), more than 128 µg/mL; in [7] (ATCCBAA1898, read-out: MIC, single substance (1-1-Na, QPX7728, CPM), strain ATCC BAA-1898, KPC-2, Class A), 64 µg/mL (≈ 133 µM); in [7] (ATCCBAA1899, read-out: MIC, CPM, strain ATCC BAA-1899, KPC-2, Class A) it was more than 128 µg/mL; in [7] (ATCCBAA1899, read-out: MIC, single substance (1-1-Na, QPX7728, CPM), strain ATCC BAA-1899, KPC-2, Class A), 32 µg/mL (≈ 66.6 µM). Besides, the MIC in [7] (ATCCBAA2343, read-out: MIC, CPM, strain ATCC BAA-2343, KPC, Class A) is more than 128 µg/mL; in data set [7] (ATCCBAA2343, read-out: MIC, single substance (1-1-Na, QPX7728, CPM), strain ATCC BAA-2343, KPC, Class A) it was 128 µg/mL (≈ 266 µM); in data set [7] (ATCCBAA2470, read-out: MIC, CPM, strain ATCC BAA-2470, NDM-1, Class B), more than 128 µg/mL; in data set [7] (ATCCBAA2470, read-out: MIC, single substance (1-1-Na, QPX7728, CPM), strain ATCC BAA-2470, NDM-1, Class B) it was more than 128 µg/mL; in [7] (read-out: MIC, CPM, strain ARLG-1127 (Urine), KPC, KPC-3, TEM, TEM-1, Class A), more than 128 µg/mL; in [7] (read-out: MIC, CPM, strain ARLG-1195, CTM-1 group, SHV, NDM, Class A, B) it was more than 128 µg/mL. Besides, the MIC in [7] (read-out: MIC, CPM, strain ARLG-1196, CTM-1 group, SHV, NDM, TEM, Class A, B) was 128 µg/mL (≈ 266 µM); in data set [7] (read-out: MIC, single substance (1-1-Na, QPX7728, CPM), strain ARLG-1127 (Urine), KPC, KPC-3, TEM, TEM-1, Class A), more than 128 µg/mL; in [7] (read-out: MIC, single substance (1-1-Na, QPX7728, CPM), strain ARLG-1195, CTM-1 group, SHV, NDM, Class A, B), 64 µg/mL (≈ 133 µM); in data set [7] (read-out: MIC, single substance (1-1-Na, QPX7728, CPM), strain ARLG-1196, CTM-1 group, SHV, NDM, TEM, Class A, B) it was 128 µg/mL (≈ 266 µM).
In the case of `O=C(O)c1c2c(cc3c1OB(O)C1CC31)OCCO2` (centres unmarked) [Compound 1], the Minimum inhibitory concentration in data set [8] was 0.5 µg/mL; in [9] (setting [12]) it was not above 0.03125 µg/mL; in [9] (setting [13]), 0.5 µg/mL; in data set [10] (setting [12]), 4 µg/mL; in [10] (setting [13]) it was 16 µg/mL.
For the molecule `O=C(O)c1c2c(cc3c1OB(O)C1CC31)OC(F)(F)O2` (centres unmarked) [Compound 2], the Minimum inhibitory concentration in data set [8] was more than 16 µg/mL; in data set [9] (setting [12]), 1 µg/mL; in data set [9] (setting [13]), more than 16 µg/mL; in [10] (setting [12]) it was more than 16 µg/mL; in [10] (setting [13]), more than 16 µg/mL.
As usually defined, the AUC(0-inf) is the area under the concentration-time curve extrapolated to infinity. The low end stands for low exposure, the high end for high exposure. Usually AUC(0-t) stands for exposure summed from dosing to a finite time, without extrapolation to infinity. A higher AUC(0-t) goes with more exposure. What is called Cmax is the maximum level reached in the sampled fluid or tissue. As a reminder, the Tmax is the time from dosing to the highest level. As for `O=C(O)c1c(F)ccc2c1OB(O)[C@@H]1C[C@H]21` [QPX7728 disodium salt], in [11] (10 mg/kg), the AUC(0-inf) was determined as 46 µg·h/mL, the AUC(0-t) was determined as 44.7 µg·h/mL, the Cmax was determined as 65.8 µg/mL and the time of peak concentration (Tmax) came out at 4.98 min. In addition, the t½z in data set [11] (10 mg/kg) was determined as 174 min. In [11] (100 mg/kg), the total exposure AUC(0-inf) came out at 300 µg·h/mL, the AUC(0-t) stood at 297 µg·h/mL, the highest concentration (Cmax) is 399 µg/mL and the time of peak concentration (Tmax) came out at 4.98 min. This molecule returned a t½z in data set [11] (100 mg/kg) of 126 min.
`NCCN[C@H]1CC[C@H](CC(=O)N[C@H]2Cc3cccc(C(=O)O)c3OB2O)CC1` [VNRX-5133]: the Minimum inhibitory concentration in [8] is 2 µg/mL; in [9] (setting [12]), not above 0.03125 µg/mL; in data set [9] (setting [13]) it was 0.25 µg/mL; in [10] (setting [12]) it was 2 µg/mL; in [10] (setting [13]), more than 16 µg/mL.
